The results in this text go back to ChEMBL document CHEMBL1158434, “Discovery of a potent and brain penetrant mGluR5 positive allosteric modulator” (Bioorg Med Chem Lett, 2009).

In series [1] the target is T1, Metabotropic glutamate receptor 5 (Homo sapiens, UniProt P41594). The experiment in a line: Agonist activity at human mGluR5 transiently transfected in BHK cells assessed as potentiation of L-glutamate-induced calcium flux by FLIPR assay. The class given is functional, cell-based.
Target sequence in this assay (P41594 whole entry): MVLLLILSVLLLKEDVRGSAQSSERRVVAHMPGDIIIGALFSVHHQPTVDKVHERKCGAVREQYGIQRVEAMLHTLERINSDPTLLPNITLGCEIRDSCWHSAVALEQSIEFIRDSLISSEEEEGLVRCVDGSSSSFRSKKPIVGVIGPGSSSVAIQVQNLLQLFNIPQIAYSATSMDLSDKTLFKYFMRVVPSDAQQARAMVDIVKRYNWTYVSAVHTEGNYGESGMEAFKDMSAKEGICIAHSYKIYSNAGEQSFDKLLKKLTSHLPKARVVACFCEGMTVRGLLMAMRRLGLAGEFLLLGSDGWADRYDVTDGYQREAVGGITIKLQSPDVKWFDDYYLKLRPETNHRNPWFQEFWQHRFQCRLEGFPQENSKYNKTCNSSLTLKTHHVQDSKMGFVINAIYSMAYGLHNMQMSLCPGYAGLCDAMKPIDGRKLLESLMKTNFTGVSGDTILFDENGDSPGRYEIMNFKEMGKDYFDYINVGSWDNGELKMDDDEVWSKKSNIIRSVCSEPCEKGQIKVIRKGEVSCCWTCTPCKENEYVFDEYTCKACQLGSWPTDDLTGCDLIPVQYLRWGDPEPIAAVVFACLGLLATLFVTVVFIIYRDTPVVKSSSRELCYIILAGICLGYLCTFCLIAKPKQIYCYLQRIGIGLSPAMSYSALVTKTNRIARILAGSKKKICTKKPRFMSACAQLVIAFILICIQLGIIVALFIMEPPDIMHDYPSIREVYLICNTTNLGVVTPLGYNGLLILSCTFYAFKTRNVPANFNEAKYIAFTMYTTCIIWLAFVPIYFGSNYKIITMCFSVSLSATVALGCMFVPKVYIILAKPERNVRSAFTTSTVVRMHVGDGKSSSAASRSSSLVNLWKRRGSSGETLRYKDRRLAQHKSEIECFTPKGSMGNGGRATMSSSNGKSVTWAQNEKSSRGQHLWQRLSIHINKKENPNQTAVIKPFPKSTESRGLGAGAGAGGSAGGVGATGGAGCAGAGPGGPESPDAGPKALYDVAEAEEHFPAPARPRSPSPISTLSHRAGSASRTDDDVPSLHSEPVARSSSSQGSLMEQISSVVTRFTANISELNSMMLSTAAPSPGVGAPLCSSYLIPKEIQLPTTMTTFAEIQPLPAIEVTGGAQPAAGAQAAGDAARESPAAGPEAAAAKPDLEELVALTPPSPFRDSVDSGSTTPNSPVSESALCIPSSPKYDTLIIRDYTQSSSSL
The target in series [2] is T1, Metabotropic glutamate receptor 5. The series is described as follows: Agonist activity at human mGluR5 transiently transfected in BHK cells assessed as potentiation of L-glutamate-induced calcium flux at 100 nM by FLIPR assay. Format: functional, cell-based. On the technique in general: Calcium assays in cells follow changes in intracellular calcium, usually with a dye or a luminescent sensor.
Target sequence in this assay (P41594 21-1212 limits assumed): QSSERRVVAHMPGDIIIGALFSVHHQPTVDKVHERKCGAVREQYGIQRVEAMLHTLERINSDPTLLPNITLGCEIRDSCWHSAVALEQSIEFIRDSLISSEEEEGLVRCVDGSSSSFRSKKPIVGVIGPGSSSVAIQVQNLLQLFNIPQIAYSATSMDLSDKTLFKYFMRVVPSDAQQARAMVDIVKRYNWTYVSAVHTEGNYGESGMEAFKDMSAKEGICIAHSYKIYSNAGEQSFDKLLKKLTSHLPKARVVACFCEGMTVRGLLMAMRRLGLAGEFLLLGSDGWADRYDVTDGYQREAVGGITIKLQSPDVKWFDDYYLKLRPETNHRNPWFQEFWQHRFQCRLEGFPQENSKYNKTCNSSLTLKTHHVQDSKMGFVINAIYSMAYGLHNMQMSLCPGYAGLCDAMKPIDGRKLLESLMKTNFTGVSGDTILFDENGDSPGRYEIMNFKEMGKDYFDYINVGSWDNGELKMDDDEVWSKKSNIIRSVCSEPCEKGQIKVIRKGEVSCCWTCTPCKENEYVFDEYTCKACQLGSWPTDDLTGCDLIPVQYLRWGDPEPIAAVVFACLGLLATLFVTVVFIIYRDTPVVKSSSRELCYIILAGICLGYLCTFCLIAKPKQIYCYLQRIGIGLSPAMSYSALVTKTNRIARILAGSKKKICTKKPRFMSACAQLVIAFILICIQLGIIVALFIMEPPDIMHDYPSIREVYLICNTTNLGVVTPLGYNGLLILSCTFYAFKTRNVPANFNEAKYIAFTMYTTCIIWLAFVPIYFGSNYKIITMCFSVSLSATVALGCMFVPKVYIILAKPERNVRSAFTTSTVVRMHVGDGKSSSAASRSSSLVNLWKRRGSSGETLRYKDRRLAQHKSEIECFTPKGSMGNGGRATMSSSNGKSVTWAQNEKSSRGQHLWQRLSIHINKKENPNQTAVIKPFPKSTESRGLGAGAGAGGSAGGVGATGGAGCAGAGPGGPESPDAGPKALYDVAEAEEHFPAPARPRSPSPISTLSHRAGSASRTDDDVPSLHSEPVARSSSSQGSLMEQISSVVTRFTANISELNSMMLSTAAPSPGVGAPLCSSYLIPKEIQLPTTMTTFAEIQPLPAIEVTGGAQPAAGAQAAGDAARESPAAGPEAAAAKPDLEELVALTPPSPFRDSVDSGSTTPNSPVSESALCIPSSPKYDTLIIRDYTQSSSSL

A short description of series [3]: Elimination half life in Lister Hooded rat at 2.5 mg/kg, po. Conditions: in vivo, read-out: beta t1/2 (converted). Format: ADME, organism-based. Set-up: dose 2.5 mg/kg, route oral.
Series [4] deals with Metabotropic glutamate receptor 1 (Homo sapiens) (UniProt Q13255). The experiment in a line: Antagonist activity at mGluR1 at 10 uM. The class given is functional.
Chain of Metabotropic glutamate receptor 1 (Homo sapiens) (Q13255 19-1194 limits assumed): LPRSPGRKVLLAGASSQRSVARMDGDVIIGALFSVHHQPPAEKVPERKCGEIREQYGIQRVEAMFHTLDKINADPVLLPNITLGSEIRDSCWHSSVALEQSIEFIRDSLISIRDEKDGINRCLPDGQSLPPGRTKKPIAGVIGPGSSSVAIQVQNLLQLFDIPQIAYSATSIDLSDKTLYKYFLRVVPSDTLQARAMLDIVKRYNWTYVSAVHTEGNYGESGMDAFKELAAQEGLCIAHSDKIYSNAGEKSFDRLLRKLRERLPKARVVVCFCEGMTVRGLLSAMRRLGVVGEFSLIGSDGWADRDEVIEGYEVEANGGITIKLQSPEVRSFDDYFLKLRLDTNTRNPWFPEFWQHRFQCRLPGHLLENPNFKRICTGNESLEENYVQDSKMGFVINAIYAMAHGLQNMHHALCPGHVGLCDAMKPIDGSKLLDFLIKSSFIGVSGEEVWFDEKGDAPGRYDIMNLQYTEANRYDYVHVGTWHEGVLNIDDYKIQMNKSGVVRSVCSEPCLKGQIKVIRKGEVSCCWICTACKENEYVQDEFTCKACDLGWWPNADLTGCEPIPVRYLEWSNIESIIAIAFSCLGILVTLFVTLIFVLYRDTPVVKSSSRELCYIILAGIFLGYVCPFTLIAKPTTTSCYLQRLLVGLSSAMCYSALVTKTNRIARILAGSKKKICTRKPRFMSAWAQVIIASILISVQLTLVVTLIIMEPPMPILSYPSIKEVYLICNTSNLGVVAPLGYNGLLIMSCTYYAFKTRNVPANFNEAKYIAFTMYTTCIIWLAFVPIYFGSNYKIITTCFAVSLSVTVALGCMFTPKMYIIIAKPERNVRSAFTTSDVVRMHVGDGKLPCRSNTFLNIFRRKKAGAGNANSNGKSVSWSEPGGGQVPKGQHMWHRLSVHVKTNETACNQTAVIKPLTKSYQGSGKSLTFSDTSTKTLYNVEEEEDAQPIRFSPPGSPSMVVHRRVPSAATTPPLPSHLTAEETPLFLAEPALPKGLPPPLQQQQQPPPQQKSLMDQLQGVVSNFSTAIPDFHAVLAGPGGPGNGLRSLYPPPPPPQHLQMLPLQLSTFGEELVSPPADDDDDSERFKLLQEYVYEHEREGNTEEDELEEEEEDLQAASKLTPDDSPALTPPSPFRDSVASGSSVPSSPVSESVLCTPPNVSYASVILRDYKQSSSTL
For series [5], the target named is T1, Metabotropic glutamate receptor 5. The experiment in a line: Agonist activity at human mGluR5 transiently transfected in BHK cells assessed as 5.5 fold decrease in L-glutamate EC50 for induction of calcium flux at 1 uM by FLIPR assay.
Target sequence in this assay (P41594 21-1212 limits assumed): as the sequence (P41594 21-1212 limits assumed) above
The target is the same in series [6]. The experiment in a line: Agonist activity at human mGluR5 transiently transfected in BHK cells assessed as potentiation of L-glutamate-induced calcium flux at 1000 nM by FLIPR assay. Format: functional, cell-based.
Target sequence in this assay (P41594 21-1212 limits assumed): as above
Series [7] has as its target Metabotropic glutamate receptor 1 (Homo sapiens) (UniProt Q13255). The series is described as follows: Agonist activity at mGluR1 at 10 uM. The class given is functional.
Series [8] deals with T1, Metabotropic glutamate receptor 5. The experiment in a line: Displacement of [3H]MPEP from human recombinant mGluR5 expressed in BHK cells at by radioligand binding assay. The class given is cell-based.
Target sequence in this assay (P41594 whole entry): as the sequence (P41594 whole entry) above
The nature of series [9]: Elimination half life in C57/6J mouse at 5 mg/kg, po. Format: ADME, organism-based. Set-up: dose 5 mg/kg, route oral. To be noted: in vivo, read-out: beta t1/2 (converted).
For series [10], the target named is T1, Metabotropic glutamate receptor 5. The series is described as follows: Displacement of [3H]quisqualic acid from human recombinant mGluR5 expressed in BHK cells by radioligand binding assay. The class given is cell-based.
Target sequence in this assay (P41594 21-1212 limits assumed): as the sequence (P41594 21-1212 limits assumed) above
The target is the same in series [11]. The series is described as follows: Activity at human mGluR5 transiently transfected in BHK cells assessed as decrease in maximum response of L-glutamate for calcium flux at 0.60 uM by FLIPR assay. The class given is functional, cell-based.
Target sequence in this assay (P41594 21-1212 limits assumed): as above
A short description of series [12]: Ratio of drug level in brain to plasma in Lister Hooded rat at 2.5 mg/kg, po by turboflow chromatography. The class given is ADME, organism-based. Also on record: dose 2.5 mg/kg, route oral. To be noted: brain and plasma.
Series [13] deals with Metabotropic glutamate receptor 1 (Homo sapiens) (UniProt Q13255). The series is described as follows: Allosteric modulation of mGluR1 at 10 uM.
Series [14] deals with T1, Metabotropic glutamate receptor 5. The experiment in a line: Potentiation of [3H]quisqualic acid binding to human recombinant mGluR5 expressed in BHK cells at >1 uM by radioligand binding assay. The class given is cell-based.
Target sequence in this assay (P41594 21-1212 limits assumed): as above
Series [15] can be described thus: Aqueous solubility at pH 7.4. Format: physicochemical. To be noted: aqueous medium.
Series [16] can be described thus: Ratio of drug level in brain to plasma in C57/6J mouse at 5 mg/kg, po by turboflow chromatography. Conditions: brain and plasma. Set-up: dose 5 mg/kg, route oral. Format: ADME, organism-based.
For series [17], the target named is T1, Metabotropic glutamate receptor 5. The series is described as follows: Agonist activity at human mGluR5 transiently transfected in BHK cells assessed as potentiation of L-glutamate-induced calcium flux at 10 uM by FLIPR assay.
Target sequence in this assay (P41594 whole entry): as the sequence (P41594 whole entry) above
The target is the same in series [18]. The series is described as follows: Agonist activity at human mGluR5 transiently transfected in BHK cells assessed as potentiation of L-glutamate-induced calcium flux by FLIPR assay relative to L-glutamate. The class given is functional, cell-based.

Values after ≈ are worked out from the molar mass of the structure shown. Active and inactive are the calls of the source. The calls are words filed in the database; no cut-off is given here.

In the case of `CC1CCN(C(=O)c2ccc(C#Cc3ccccc3)cc2)CC1`, the EC50 in series [1] came to 720 nM.
`O=C(c1ccc(C#Cc2ccccc2)nc1)N1CCSCC1`: in series [1], the EC50 was determined as 46 nM.
On the same count and under the same terms, for `O=C(NCc1ccco1)c1ccc(C#Cc2ccccc2)nc1` the value was 180 nM.
Regarding `O=C(NC1CCCC1)c1ccc(C#Cc2ccccc2)nc1`, the outcome in [2], in series [5], in series [6] and in [11] was Active. In addition, in series [1], the EC50 was 30 nM. Also, the half-life in series [3] was 4 h; in series [9], 1 h. Besides, the result in series [4], in series [7], in [10] and in series [13] was inactive. Besides, the Ki in series [8] is 1800 nM. The Kp in series [12] turned out to be 0.3; in series [16] it was 0.5. Besides, in series [14], the Activity turned out to be 30%. For the same molecule, in series [15], the concentration in solution (solubility) was 1.7 µM (≈ 0.494 µg/mL).
As to `O=C(c1ccc(C#Cc2ccccc2)nc1)N1CCCCC1`, the concentration giving a half-maximal response (EC50) in series [1] was 280 nM.
Same read-out and setting: for `O=C(NCc1ccsc1)c1ccc(C#Cc2ccccc2)cc1` the value was 1200 nM; for `O=C(NCc1ccsc1)c1ccc(C#Cc2ccccc2)nc1`, 140 nM.
As to `CCOC(=O)c1ccc(C#Cc2ccccc2)nc1`, the EC50 entry in series [17] is “Not Active”.
With `O=C(NC1CCCCC1)c1ccc(C#Cc2ccccc2)nc1`, the half-maximal effective concentration (EC50) in series [1] was found to be 240 nM.
In the case of `CC1CCC(NC(=O)c2ccc(C#Cc3ccccc3)nc2)CC1` (stereo not drawn), the EC50 in series [1] is 1200 nM.
Still for that read-out and setting: with `CC(C)CCNC(=O)c1ccc(C#Cc2ccccc2)nc1` the figure was 510 nM; with `NC(=O)c1ccc(C#Cc2ccccc2)nc1`, 6600 nM.
Turning to `CN1CCN(C(=O)c2ccc(C#Cc3ccccc3)cc2)CC1`, in series [1], the EC50 was determined as 3100 nM.
In the case of `O=C(c1ccc(C#Cc2ccccc2)nc1)N1CCOCC1`, in series [1], the EC50 was 990 nM.
`CC1CCN(C(=O)c2ccc(C#Cc3ccccc3)nc2)CC1`: in series [1], the EC50 was 130 nM.
For `CN1CCN(C(=O)c2ccc(C#Cc3ccccc3)nc2)CC1`, the EC50 in [1] was 1600 nM.
Regarding `C(#Cc1ccc(C(N2CCOCC2)N2CCOCC2)cc1)c1ccccc1`, the EC50 in [1] came out at 970 nM. Besides, the Activity in series [18] was 73%.

The EC50 is the concentration that produces a half-maximal response. Usually Ki stands for the dissociation constant of the complex between target and ligand, obtained from inhibition or displacement. As a reminder, the Kp is the ratio of the level in a tissue or fluid to that in plasma or blood. A word on the solubility: it is the concentration that dissolves in the medium under given conditions. Higher therefore signals much dissolved substance.
